Values of other authors in patent publication US6897334B2 (Board of Regents of the University of Nebraska, priority 2003, dated 2005).

Settings: background statement

solubility in an aqueous solution: over 200 mg/ml
Compound: CCOC(=O)CN(C)C(=N)N [creatine ethyl ester, Creatine ethyl ester]
